Laboratory results taken from ChEMBL document CHEMBL1152042, “Polyhydroxylated 3-(N-phenyl) carbamoyl-2-iminochromene derivatives as potent inhibitors of tyrosine kinase p60c-src” (Bioorg Med Chem Lett, 1995).

Tests used:
[1] = biological target: Proto-oncogene tyrosine-protein kinase Src (Homo sapiens, UniProt P12931); assay: Inhibitory activity against p60 c-Src tyrosine kinase
[2] = biological target: Tyrosine-protein kinase Lck (Homo sapiens, UniProt P06239); assay: Inhibitory activity against p56 Lck tyrosine kinase
Sequence of Tyrosine-protein kinase Lck (P06239 whole entry): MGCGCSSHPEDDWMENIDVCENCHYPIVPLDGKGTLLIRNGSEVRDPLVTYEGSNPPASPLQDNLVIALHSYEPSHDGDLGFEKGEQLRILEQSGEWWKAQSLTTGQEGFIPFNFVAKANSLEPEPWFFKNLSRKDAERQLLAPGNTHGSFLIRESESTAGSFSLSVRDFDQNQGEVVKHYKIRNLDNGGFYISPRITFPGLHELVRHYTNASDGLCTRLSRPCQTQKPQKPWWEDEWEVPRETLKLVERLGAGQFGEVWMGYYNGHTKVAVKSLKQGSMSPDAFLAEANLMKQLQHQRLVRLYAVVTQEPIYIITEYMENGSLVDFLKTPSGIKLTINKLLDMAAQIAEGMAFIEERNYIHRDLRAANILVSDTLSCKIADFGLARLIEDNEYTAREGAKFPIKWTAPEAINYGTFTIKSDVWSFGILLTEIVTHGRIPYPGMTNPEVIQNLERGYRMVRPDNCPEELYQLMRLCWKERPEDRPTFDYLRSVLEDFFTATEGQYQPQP

[3] = biological target: Tyrosine-protein kinase Fyn (Homo sapiens, UniProt P06241); assay: Inhibitory activity against p55 Fyn tyrosine kinase
Sequence of Tyrosine-protein kinase Fyn (P06241 whole entry): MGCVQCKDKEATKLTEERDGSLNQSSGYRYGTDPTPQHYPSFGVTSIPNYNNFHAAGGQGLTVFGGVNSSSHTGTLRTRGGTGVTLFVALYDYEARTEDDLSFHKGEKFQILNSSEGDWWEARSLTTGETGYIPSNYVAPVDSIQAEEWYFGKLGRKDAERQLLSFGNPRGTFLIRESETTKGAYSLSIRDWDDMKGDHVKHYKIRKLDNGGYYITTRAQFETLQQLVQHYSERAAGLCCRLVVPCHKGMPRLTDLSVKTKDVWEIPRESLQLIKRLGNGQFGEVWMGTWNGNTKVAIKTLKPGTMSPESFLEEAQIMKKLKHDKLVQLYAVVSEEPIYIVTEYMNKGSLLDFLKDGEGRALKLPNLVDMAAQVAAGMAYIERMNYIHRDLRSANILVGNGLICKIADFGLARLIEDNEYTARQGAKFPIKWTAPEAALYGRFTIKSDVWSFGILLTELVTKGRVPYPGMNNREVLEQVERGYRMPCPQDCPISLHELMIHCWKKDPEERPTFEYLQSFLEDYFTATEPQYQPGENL

[4] = biological target: Tyrosine-protein kinase Lyn (Homo sapiens, UniProt P07948); assay: Inhibitory activity against p56 Lyn tyrosine kinase
Sequence of Tyrosine-protein kinase Lyn (P07948 whole entry): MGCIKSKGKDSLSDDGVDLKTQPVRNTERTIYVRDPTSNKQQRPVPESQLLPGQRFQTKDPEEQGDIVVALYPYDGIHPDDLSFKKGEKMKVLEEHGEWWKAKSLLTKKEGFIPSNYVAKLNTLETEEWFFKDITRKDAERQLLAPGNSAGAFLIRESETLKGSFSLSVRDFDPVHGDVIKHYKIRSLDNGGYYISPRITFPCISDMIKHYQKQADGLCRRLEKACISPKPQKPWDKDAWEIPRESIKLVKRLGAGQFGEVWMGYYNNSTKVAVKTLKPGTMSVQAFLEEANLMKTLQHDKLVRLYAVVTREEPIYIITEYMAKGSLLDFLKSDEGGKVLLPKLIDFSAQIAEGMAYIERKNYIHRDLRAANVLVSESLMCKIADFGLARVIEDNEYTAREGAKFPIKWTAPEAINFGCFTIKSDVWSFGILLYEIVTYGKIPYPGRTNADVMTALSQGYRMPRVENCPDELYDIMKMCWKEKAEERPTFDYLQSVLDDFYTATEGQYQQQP

Sequence of Proto-oncogene tyrosine-protein kinase Src (P12931 2-536 limits assumed): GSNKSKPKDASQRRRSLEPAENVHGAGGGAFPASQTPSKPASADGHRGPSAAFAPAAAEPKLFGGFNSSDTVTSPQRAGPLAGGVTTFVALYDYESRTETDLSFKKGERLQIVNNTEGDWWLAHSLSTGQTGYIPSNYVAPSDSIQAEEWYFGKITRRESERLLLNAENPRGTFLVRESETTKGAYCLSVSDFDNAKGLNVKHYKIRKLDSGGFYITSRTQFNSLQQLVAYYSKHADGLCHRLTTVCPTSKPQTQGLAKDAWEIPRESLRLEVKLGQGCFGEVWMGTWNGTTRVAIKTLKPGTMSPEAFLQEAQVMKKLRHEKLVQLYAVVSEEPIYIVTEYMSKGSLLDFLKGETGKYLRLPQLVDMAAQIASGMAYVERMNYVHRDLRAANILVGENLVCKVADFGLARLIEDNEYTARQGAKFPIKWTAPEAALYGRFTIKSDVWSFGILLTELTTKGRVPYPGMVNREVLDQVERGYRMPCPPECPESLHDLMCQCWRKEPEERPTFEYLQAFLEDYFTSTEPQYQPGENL

## N=c1oc2ccccc2cc1C(=O)Nc1ccccc1O
[1]
  IC50: > 71.4 µM

## N=c1oc2ccc(O)cc2cc1C(=O)Nc1ccc(O)cc1
[2]
  IC50: > 33.8 µM

## COc1ccc2cc(C(=O)Nc3ccc(O)cc3)c(=N)oc2c1
[2]
  IC50: > 32.2 µM
[1]
  IC50: > 32.2 µM

## N=c1oc2c(O)cccc2cc1C(=O)Nc1ccc(O)cc1
[3]
  IC50: > 67.5 µM

## N=c1oc2ccc(O)cc2cc1C(=O)Nc1cccc(O)c1
[2]
  IC50: > 33.8 µM

## N=c1oc2c(O)c(O)ccc2cc1C(=O)Nc1cccc(O)c1
[3]
  IC50: > 64 µM

## N=c1oc2c(O)cccc2cc1C(=O)Nc1ccccc1O
[3]
  IC50: > 67.5 µM
[4]
  IC50: > 67.5 µM
[1]
  IC50: > 33.8 µM

## N=c1oc2c(O)c(O)ccc2cc1C(=O)Nc1cccc(CO)c1
[3]
  IC50: > 61.3 µM
[2]
  IC50: > 61.3 µM

## N=c1oc2cc(O)cc(O)c2cc1C(=O)Nc1ccccc1O
[4]
  IC50: > 16 µM

## N=c1oc2cc(O)ccc2cc1C(=O)Nc1ccc(O)cc1
[2]
  IC50: > 33.8 µM

## N=c1oc2c(O)cccc2cc1C(=O)Nc1cccc(O)c1
[4]
  IC50: < 33.8 µM

## N=c1oc2c(O)c(O)ccc2cc1C(=O)Nc1ccccc1
[3]
  IC50: > 67.5 µM
[2]
  IC50: > 67.5 µM
[4]
  IC50: > 67.5 µM
[1]
  IC50: > 67.5 µM

## N=c1oc2ccccc2cc1C(=O)Nc1ccc(O)cc1
[1]
  IC50: > 71.4 µM

## N=c1oc2c(O)c(O)ccc2cc1C(=O)Nc1ccccc1CO
[3]
  IC50: > 61.3 µM
[4]
  IC50: > 61.3 µM

## N=c1oc2c(O)c(O)ccc2cc1C(=O)Nc1ccccc1O
[3]
  IC50: > 64 µM
[4]
  IC50: > 64 µM

## N=c1oc2c(O)cccc2cc1C(=O)Nc1cccc(CO)c1
[3]
  IC50: 9.67 µM
[4]
  IC50: 64.5 µM

## N=c1oc2c(O)c(O)ccc2cc1C(=O)Nc1ccc(O)cc1
[3]
  IC50: > 64 µM
[4]
  IC50: > 64 µM

## N=c1oc2cc(O)ccc2cc1C(=O)Nc1cccc(O)c1
[2]
  IC50: > 33.8 µM
